Series [1] relates to K. pneumoniae Lab Strain KP10. Nature of the series: MIC, laboratory strains (Example 8). It is filed as cell-based.
A short description of series [2]: NZW rabbit keratitis model, clinical evaluation (Total Ocular Score). As for the experimental part:
Fifteen rabbits were received from Myrtles' Rabbitry, Thompson Station, TN. The clinical isolate of fluoroquinolone-resistant, methicillin-resistant (MRSA) Staphylococcus aureus (K950) was subcultured on 5% sheep blood agar and incubated at 37° C. in 6% CO2 overnight. The next morning, the MRSA strain was suspended in sterile trypticase soy broth to a 0.5 McFarland Standard, containing approximately 5×10^8 cfu/ml of bacteria. The absorbance of the suspension was measured at 650 nm using a Beckman DU-70 spectrophotometer. OD readings of 0.07 corresponded to 5×10^8 cfu/ml of bacteria. This concentration was appropriately diluted in sterile trypticase soy broth to provide the inoculum of approximately 1,000 (1.0×10^3) cfu/eye in 25 μl. Colony counts were performed on the inoculum to determine the actual cfu inoculated. Following general anesthesia with ketamine and xylazine and topical anesthesia with proparacaine and prior to bacterial inoculation in the left eyes, 6 mm areas of the corneal epithelia was removed centrally with an Amoils epithelial scrubber. Nothing was done to the right eyes. The 15 rabbits were then inoculated intrastromally in both eyes with 25 μl of the bacterial dilution of approximately 10^3 cfu/eye of the bacteria. The bacterial inoculation of the left eyes was directly under the epithelial defect created by the Amoils epithelial scrubber. The epithelia were removed in the left corneas in order to determine whether this layer of the cornea is a barrier for Oligomer 2 penetration when compared to the right cornea with an intact epithelium. A colony count was done on the inoculum to determine the actual cfu inoculated. The rabbits were immediately treated with analgesia in the form of and intramuscular injection of ketoprofen, 1.5 mg/kg. After 4 hours, the 15 rabbits were divided into 4 treatment groups and one untreated control group sacrificed at the onset of therapy. Both eyes of each rabbit of the treatment groups were treated with one 37 μl drop of the coded solutions or control Saline or 1 drop of vancomycin from its dropper bottle. The Oligomer 2 concentrations were masked and labeled as 1 and 2. The masked concentrations were 1% Oligomer 2 and 0.5% Oligomer 2 but the specific concentrations of solutions were not known to the lab workers who carried out the experiment. The vancomycin and control (Tris-Buffered Saline) were not masked.
Treatment was scheduled for every 15 minutes for 5 hours (21 total doses). However, PMX-1 and PMX-2 were exhausted after the 19th dose. Therefore, the actual treatment was 15 minutes for 4.5 hours (19 total doses). The 3 rabbits in group V were sacrificed 4 hours PI and large 9.5 mm buttons were removed from the corneas. These were placed in 1 ml of PBS and kept on ice. The corneal buttons were homogenized for 25 seconds on ice using the motorized homogenizer. After homogenization, colony counts were done on the homogenates using 5% sheep blood agar plates to determine the amount of bacteria contained in the corneas at the onset of therapy. Following the completion of therapy, the eyes were examined for clinical signs of infection. One hour after the final treatment, the treated rabbits (Groups I-IV) were sacrificed and large 9.5 mm buttons were removed from the corneas. These were placed in 1 ml of PBS and kept on ice. The corneal buttons were homogenized for 25 seconds on ice using the motorized homogenizer. After homogenization, colony counts were performed on the homogenates using 5% sheep blood agar plates to determine the amount of bacteria contained in the corneas after treatment. The next morning, the plates were counted and the number of cfu/eye of Staphylococcus aureus was determined for each cornea.
Fifteen rabbits were received from Myrtles' Rabbitry, Thompson Station, TN.

Converted amounts (≈) assume the structure as drawn.

As usually defined, the MIC is the lowest concentration found to suppress growth. A higher MIC goes with a need for much substance. In series [1], `N=C(N)NCCCCC(=O)Nc1cc(C(F)(F)F)cc(NC(=O)c2cnc(C(=O)Nc3cc(C(F)(F)F)cc(NC(=O)CCCCNC(=N)N)c3SCCN)cn2)c1SCCN` [Oligomer 5] registered a minimum inhibitory concentration (MIC) of 1.56 µg/mL (≈ 1.7 µM). In the case of `N=C(N)NCCCCC(=O)Nc1cc(C(F)(F)F)cc(NC(=O)c2cc(C(=O)Nc3cc(C(F)(F)F)cc(NC(=O)CCCCNC(=N)N)c3SCCN)ncn2)c1SCCN` [Oligomer 2], in series [2] (Ker-1, 1% and 0.5% Oligomer 2, compared with intact epithelia), the “Effect of removal of the epithelium on Total Ocular Scores” value is on record as “increased the Total Ocular Scores”. With `N=C(N)NCCCCC(=O)Nc1cc(C(F)(F)F)cc(NC(=O)c2cc(C(=O)Nc3cc(C(F)(F)F)cc(NC(=O)CCCCNC(=N)N)c3O[C@@H]3CCNC3)ncn2)c1O[C@@H]1CCNC1` [Oligomer 4], the MIC in series [1] stood at 0.78 µg/mL (≈ 0.833 µM).

For the compound `CC(C)=CCCC(C)=CCCC(C)=CCO` [Farnesol], the “Toxicity (Total Ocular Scores) compared with Saline treated eyes” value in series [2] (rabbit, in vivo) is listed as “did not induce statistically greater toxicity”.
